This is an account of results in PubChem BioAssay AID2335 (Sanford-Burnham Center for Chemical Genomics, 2010).

Activity calls are given as the source filed them. How the calls were made is not given here.

The test system of this experiment is HEK293 cytotoxicity, cell viability. In words: HEK293 cell viability reduction – revised, SAR follow-up (AID 2335).

What is called IC50 is the concentration that inhibits the measured activity by half. In the case of `Cn1nccc1C(=O)NC1CCCc2c1cnn2-c1ccccc1F` (stereo unspecified), the IC50 was > 20 µM (inactive).
